Assay: Solubility of olanzapine pamoate salts as a function of pH
Type: physicochemical
Conditions: particularly in the range of pH 4 to 8

Cc1cc2c(s1)Nc1ccccc1N=C2N1CCN(C)CC1.O=C(O)c1cc2ccccc2c(Cc2c(O)c(C(=O)O)cc3ccccc23)c1O [olanzapine pamoate, 2-methyl-4-(4-methyl-1-piperazinyl)-10H-thieno[2,3-b][1,5]benzodiazepine pamoate]
solubility, dependence on pH: somewhat independent of pH
